Test results from patent publication US20180071238A1, “Compositions and Methods for Traumatized Tissues Using Zinc Chelators” (Ohio University, priority 2015, published 2018).

Test: Zinc dissolution and precipitation in solutions of different pH (naked eye and microscope)
Type: physicochemical
Conditions: FIGS. 7A-7C
Experimental: Zinc dissolution in acidic solution and zinc precipitation or crystallization in neutral or basic solution is shown in the photographs in FIGS. 7A-7C. The tests were carried out by the application of zinc into solutions.

In the case of `[Zn+2]` [zinc], the “solubility of zinc in solution” value (acidic conditions) is reported as “generally soluble” and the “solubility of zinc in solution” value (neutral and basic conditions) is reported as “tends to crystallize or precipitate”.
